In patent US20240246937A1 (MERCK SHARP & DOHME LLC, priority 2021, published 2024):

Target: recombinant IL4I1 (Homo sapiens (Human), UniProt Q96RQ9)
Experiment: IL4I1 Enzymatic Assay (Amplex Red/HRP coupled fluorescence detection of H2O2)
Type: biochemical
Details: 240 min; recombinant IL4I1, four-hour pre-incubation with compound
Summary of the method: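 Ten-point, 1:3 compound titrations were fitted by four-parameter sigmoidal regression to give EC50. Resorufin fluorescence (544/590 nm) from Amplex Red/HRP-coupled H2O2 detection was read 120 min after adding 1 mM each aromatic amino acid to 1 nM IL4I1, following a 4 h compound pre-incubation in pH 7.0 Hepes buffer.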

recombinant IL4I1, sequence (Q96RQ9 22-567): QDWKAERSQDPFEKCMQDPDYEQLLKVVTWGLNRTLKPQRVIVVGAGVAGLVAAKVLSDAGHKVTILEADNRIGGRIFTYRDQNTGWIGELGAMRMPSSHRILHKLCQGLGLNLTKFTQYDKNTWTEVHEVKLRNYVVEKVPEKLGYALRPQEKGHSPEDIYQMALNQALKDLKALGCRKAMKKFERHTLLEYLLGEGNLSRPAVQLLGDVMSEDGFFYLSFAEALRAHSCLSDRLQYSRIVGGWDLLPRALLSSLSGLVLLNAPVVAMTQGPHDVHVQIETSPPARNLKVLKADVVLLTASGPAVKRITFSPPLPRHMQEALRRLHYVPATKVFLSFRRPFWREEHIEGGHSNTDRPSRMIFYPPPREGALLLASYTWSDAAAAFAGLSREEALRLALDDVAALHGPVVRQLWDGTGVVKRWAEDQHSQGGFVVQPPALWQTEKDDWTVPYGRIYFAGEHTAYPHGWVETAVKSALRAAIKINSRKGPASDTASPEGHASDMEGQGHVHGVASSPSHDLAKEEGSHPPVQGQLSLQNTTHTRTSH

Structure (SMILES)	EC50
O=C1C(=O)N(C2CCCC2)CCN1Cc1ccc(N2CCCCC2)nn1 [Example 316, 1-cyclopentyl-4-((6-(piperidin-1-yl)pyridazin-3-yl)methyl)piperazine-2,3-dione]	32 nM
O=C1C(=O)N(C2CCCC2)CCN1Cc1ccc(N2CCOCC2)nn1 [Example 317, 1-cyclopentyl-4-((6-morpholinopyridazin-3-yl)methyl)piperazine-2,3-dione]	45 nM
O=C1C(=O)N(C2CCCC2)CCN1Cc1ccc(N2CCC2)nn1 [Example 318, 1-((6-(azetidin-1-yl)pyridazin-3-yl)methyl)-4-cyclopentylpiperazine-2,3-dione]	36 nM
O=C1C(=O)N(C2CCCC2)CCN1Cc1ccc(N2CCC(F)(F)C2)nn1 [Example 319, 1-cyclopentyl-4-((6-(3,3-difluoropyrrolidin-1-yl)pyridazin-3-yl)methyl)piperazine-2,3-dione]	30 nM
O=C1C(=O)N(C2CCCC2)CCN1Cc1nnc(-n2nccn2)s1 [Example 323, 1-((5-(2H-1,2,3-triazol-2-yl)-1,3,4-thiadiazol-2-yl)methyl)-4-cyclopentylpiperazine-2,3-dione]	157 nM
O=C1C(=O)N(C2CCC2)CCN1Cc1cnc(-n2nccn2)cn1 [Example 324, 1-((5-(2H-1,2,3-triazol-2-yl)pyrazin-2-yl)methyl)-4-cyclobutylpiperazine-2,3-dione]	53 nM
O=C1C(=O)N(C23CC(C2)C3)CCN1Cc1cnc(-n2nccn2)cn1 [Example 325, 1-((5-(2H-1,2,3-triazol-2-yl)pyrazin-2-yl)methyl)-4-(bicyclo[1.1.1]pentan-1-yl)piperazine-2,3-dione]	33 nM
CC1(n2ccn(Cc3ccc(-n4nccn4)nn3)c(=O)c2=O)CC1 [Example 332, 1-((6-(2H-1,2,3-triazol-2-yl)pyridazin-3-yl)methyl)-4-(1-methylcyclopropyl)-1,4-dihydropyrazine-2,3-dione]	76 nM
N#CC1(n2ccn(Cc3ccc(-n4nccn4)nn3)c(=O)c2=O)CC1 [Example 333, 1-(4-((6-(2H-1,2,3-triazol-2-yl)pyridazin-3-yl)methyl)-2,3-dioxo-3,4-dihydropyrazin-1(2H)-yl)cyclopropane-1-carbonitrile]	94 nM
CC1(n2ccn(Cc3ccc(-n4ccnn4)nn3)c(=O)c2=O)CC1 [Example 334, 1-((6-(1H-1,2,3-triazol-1-yl)pyridazin-3-yl)methyl)-4-(1-methylcyclopropyl)-1,4-dihydropyrazine-2,3-dione]	29 nM
N#CC1(n2ccn(Cc3ccc(-n4ccnn4)nn3)c(=O)c2=O)CC1 [Example 335, 1-(4-((6-(1H-1,2,3-triazol-1-yl)pyridazin-3-yl)methyl)-2,3-dioxo-3,4-dihydropyrazin-1(2H)-yl)cyclopropane-1-carbonitrile]	90 nM
CCCOc1ccc(CN2CCN(C3CCCC3)C(=O)C2=O)nn1 [Example 339, 1-cyclopentyl-4-((6-propoxypyridazin-3-yl)methyl)piperazine-2,3-dione]	42 nM
CCOc1ccc(CN2CCN(C3CCCC3)C(=O)C2=O)nn1 [Example 340, 1-cyclopentyl-4-((6-ethoxypyridazin-3-yl)methyl)piperazine-2,3-dione]	70 nM
O=C1C(=O)N(C2CCCC2)CCN1Cc1ncc(-c2ccccn2)cn1 [Example 342, 1-cyclopentyl-4-((5-(pyridin-2-yl)pyrimidin-2-yl)methyl)piperazine-2,3-dione]	69 nM
O=C1C(=O)N(C2CCCC2)CCN1Cc1ncc(-c2cc(F)ccn2)cn1 [Example 343, 1-cyclopentyl-4-((5-(4-fluoropyridin-2-yl)pyrimidin-2-yl)methyl)piperazine-2,3-dione]	133 nM
CC(C)(C)N1CCN(Cc2ncc(-c3ccccc3)cn2)C(=O)C1=O [Example 345, 1-(tert-butyl)-4-((5-phenylpyrimidin-2-yl)methyl)piperazine-2,3-dione]	59 nM
CC(c1cnn(-c2ccccc2)c1)N1CCN(C2CCCC2)C(=O)C1=O (stereo not shown) [Example 347, 1-cyclopentyl-4-(1-(1-phenyl-1H-pyrazol-4-yl)ethyl)piperazine-2,3-dione]	74 nM
CC1CN(C2CCC2)C(=O)C(=O)N1Cc1nnc(-c2ccccc2)s1 (stereo not shown) [Example 357, 1-cyclobutyl-5-methyl-4-((5-phenyl-1,3,4-thiadiazol-2-yl)methyl)piperazine-2,3-dione]	32 nM

Stronger by EC50, values ahead:

EC50	Structure (SMILES)
20 nM	O=C1C(=O)N(C2CCCC2)CCN1Cc1ccc(N2CC3CC3C2)nn1 (stereo not shown) [Example 320, 1-((6-(3-azabicyclo[3.1.0]hexan-3-yl)pyridazin-3-yl)methyl)-4-cyclopentylpiperazine-2,3-dione]
21 nM	O=C1C(=O)N(C2CCCC2)CCN1Cc1ccc(-n2ccnn2)nn1 [Example 321, 1-((6-(1H-1,2,3-triazol-1-yl)pyridazin-3-yl)methyl)-4-cyclopentylpiperazine-2,3-dione]
28 nM	O=C1C(=O)N(C2CCCC2)CCN1Cc1ccc(-n2nccn2)nn1 [Example 322, 1-((6-(2H-1,2,3-triazol-2-yl)pyridazin-3-yl)methyl)-4-cyclopentylpiperazine-2,3-dione]
20 nM	O=C1C(=O)N([C@H]2C[C@@H](c3ccccc3)C2)CCN1Cc1ccc(-n2nccn2)nn1 [Example 326, 1-((6-(2H-1,2,3-triazol-2-yl)pyridazin-3-yl)methyl)-4-((cis)-3-phenylcyclobutyl)piperazine-2,3-dione]
16 nM	O=C1C(=O)N([C@H]2C[C@@H](c3ccccc3)C2)CCN1Cc1ccc(-n2ccnn2)nn1 [Example 327, 1-((6-(1H-1,2,3-triazol-1-yl)pyridazin-3-yl)methyl)-4-((cis)-3-phenylcyclobutyl)piperazine-2,3-dione]
7 nM	O=c1c(=O)n(C2CCCC2)ccn1Cc1ccc(-n2ccnn2)nn1 [Example 328, 1-((6-(1H-1,2,3-triazol-1-yl)pyridazin-3-yl)methyl)-4-cyclopentyl-1,4-dihydropyrazine-2,3-dione]
15 nM	O=c1c(=O)n(C2CCC2)ccn1Cc1ccc(-n2cccn2)nn1 [Example 329, 1-((6-(1H-pyrazol-1-yl)pyridazin-3-yl)methyl)-4-cyclobutyl-1,4-dihydropyrazine-2,3-dione]
16 nM	O=c1c(=O)n(C2CCC2)ccn1Cc1ccc(-n2ccnc2)nn1 [Example 330, 1-((6-(1H-imidazol-1-yl)pyridazin-3-yl)methyl)-4-cyclobutyl-1,4-dihydropyrazine-2,3-dione]
9 nM	O=c1c(=O)n([C@H]2C[C@H]3C[C@H]3C2)ccn1Cc1ccc(-n2ccnn2)nn1 [Example 331, 1-((6-(1H-1,2,3-triazol-1-yl)pyridazin-3-yl)methyl)-4-((cis)-bicyclo[3.1.0]hexan-3-yl)-1,4-dihydropyrazine-2,3-dione]
20 nM	O=C1C(=O)N(C2CCCC2)CCN1Cc1ccc(-n2nccn2)nc1 [Example 336, 1-((6-(2H-1,2,3-triazol-2-yl)pyridin-3-yl)methyl)-4-cyclopentylpiperazine-2,3-dione]
15 nM	O=c1c(=O)n(C2CCCC2)ccn1Cc1ncc(-c2ccccc2)cn1 [Example 337, 1-cyclopentyl-4-((5-phenylpyrimidin-2-yl)methyl)-1,4-dihydropyrazine-2,3-dione]
12 nM	N#CC1CCC(n2ccn(Cc3nnc(-c4ccccc4)s3)c(=O)c2=O)C1 (stereo not shown) [Example 338, 3-(2,3-dioxo-4-((5-phenyl-1,3,4-thiadiazol-2-yl)methyl)-3,4-dihydropyrazin-1(2H)-yl)cyclopentane-1-carbonitrile]
7 nM	O=C1C(=O)N(C2CCCC2)CCN1Cc1nnc(-c2ccccc2)s1 [Example 346, 1-cyclopentyl-4-((5-phenyl-1,3,4-thiadiazol-2-yl)methyl)piperazine-2,3-dione]
18 nM	C[C@H](c1nnc(-c2ccccc2)s1)N1CCN(C2CCCC2)C(=O)C1=O [Example 348, (R)-1-cyclopentyl-4-(1-(5-phenyl-1,3,4-thiadiazol-2-yl)ethyl)piperazine-2,3-dione]
25 nM	C[C@@H](c1nnc(-c2ccccc2)s1)N1CCN(C2CCCC2)C(=O)C1=O [Example 349, (S)-1-cyclopentyl-4-(1-(5-phenyl-1,3,4-thiadiazol-2-yl)ethyl)piperazine-2,3-dione]
5 nM	O=C1C(=O)N(C2CCCC2)CCN1CCc1nnc(-c2ccccc2)s1 [Example 350, 1-cyclopentyl-4-(2-(5-phenyl-1,3,4-thiadiazol-2-yl)ethyl)piperazine-2,3-dione]
8 nM	O=C1C(=O)N(C2CCCC2)CCN1Cc1nnc(-c2ccc(F)cc2)s1 [Example 351, 1-cyclopentyl-4-((5-(4-fluorophenyl)-1,3,4-thiadiazol-2-yl)methyl)piperazine-2,3-dione]
13 nM	CC(Cc1nnc(-c2ccccc2)s1)N1CCN(C2CCCC2)C(=O)C1=O (stereo not shown) [Example 352, 1-cyclopentyl-4-(1-(5-phenyl-1,3,4-thiadiazol-2-yl)propan-2-yl)piperazine-2,3-dione]
11 nM	CC(CN1CCN(C2CCCC2)C(=O)C1=O)c1nnc(-c2ccccc2)s1 (stereo not shown) [Example 353, 1-cyclopentyl-4-(2-(5-phenyl-1,3,4-thiadiazol-2-yl)propyl)piperazine-2,3-dione]
20 nM	O=C1C(=O)N(C2CCCC2)CCN1Cc1cc2ccccc2[nH]c1=O [Example 354, 1-cyclopentyl-4-((2-oxo-1,2-dihydroquinolin-3-yl)methyl)piperazine-2,3-dione]
22 nM	C[C@H](c1nnc(-c2ccccc2)s1)N1CCN(C2CCC2)C(=O)C1=O [Example 355, (R)-1-cyclobutyl-4-(1-(5-phenyl-1,3,4-thiadiazol-2-yl)ethyl)piperazine-2,3-dione]
28 nM	C[C@@H](c1nnc(-c2ccccc2)s1)N1CCN(C2CCC2)C(=O)C1=O [Example 356, (S)-1-cyclobutyl-4-(1-(5-phenyl-1,3,4-thiadiazol-2-yl)ethyl)piperazine-2,3-dione]
